Publication PMC5673638 (Frontiers in Microbiology, 2017)
Where “and” joins values, the source holds several entries; their conditions need not be identical. Equal values may be shown once. Entries after “also recorded” stand apart in the source; their conditions may differ. Read-outs that look alike come from different tables or passages of the source.

What was measured:
[1] = test system: H5N1 influenza virus A/Mallard/Bavaria/1/2006
[2] = test system: influenza virus strain (H5N1; MB1); conditions: mouse, in vivo
[3] = test system: highly pathogenic influenza virus; design: species or system C57BL/6 mice; conditions: mouse, in vivo
[4] = test system: H5N1 strain A/Mallard/Bavaria/1/2006; experiment: microbe, parasite or virus in culture; assay type: cell-based, influenza A virus; conditions: for EC50: read-out: EC50 (concentration required to reduce the virus titer to 50%)
[5] = test system: influenza virus strain A/FPV/Bratislava/79 (H7N7); conditions: mouse
[6] = test system: vRNP complexes of H5N1 A/Thailand/KAN-1/2004
[7] = test system: A/Regensburg/D6/2009 H1N1pdm09 strain
[8] = test system: A/FPV/Bratislava/79 (H7N7) viral proteins M1, NP, NS1, PB1
[9] = test system: caspase activation (PARP cleavage)
[10] = mouse, in vivo
in vivo = conditions: mouse, po
[11] = cited from earlier work

D,L-lysine acetylsalicylate ⋅ glycine [BAY 81-8781]
Antiviral effect, compound present for 30 min or 1 h [1]: no antiviral effects were found | Antiviral effect, compound present for 2 h or 4 h [1]: a dose dependent antiviral effect was found | Virus titer reduction [1]: > 80% | Disease progression (symptom score) [2]: rather moderate | Mice protected from death [2]: 87.5% and 62.5% | Mice protected from death (protected/total) [2]: 5/8 | Weight loss [2]: only a moderate weight loss | Day of death (p.i.) [3]: 8.8 days p.i. and 8.8 ± 1.3 days p.i. | Delay of death of non-protected mice compared to solvent animals [3]: 2 days | Survival (survival/total) [3]: 4/8 | Weight loss and disease symptoms [3]: either showed no or only slight weight loss and marginal disease symptoms | TNFα induced activation of TRAIL mRNA (TRAIL mRNA expression): significantly reduced | Antiviral effect on virus titers over time [4]: strong and sustained reduction of virus titers at all time-points; also recorded: even stronger reduction of virus titers at all time-points | EC50 [4]: 160 ± 60 µM | EC50 in vivo (concentration of inhaled BAY 81-8781 solution) [5]: 1.56% and 1.5% | Reduction of lung virus titers, oral route ([5]; in vivo): no reduction of virus titers was found | Release of vRNPs from the nucleus [6]: strongly retained and accumulated in the nucleus | Reduction of virus propagation [7]: effective to reduce virus propagation | Accumulation of viral proteins [8]: does not impact accumulation of viral proteins | Cleavage of caspase substrate PARP [9]: reduces the cleavage of the major caspase substrate PARP

CC(=O)Oc1ccccc1C(=O)O [ASA, Acetylsalicylic acid]
AUC and Cmax, plasma compared to lung homogenate [10]: about four-fold higher in plasma | AUC ([10]; iv): 0.0781 mg⋅h/L | Plasma clearance ([10]; iv): high | Terminal half-lives ([10]; iv): short | Volume of distribution at steady state ([10]; iv): moderate | AUC ([10]; po, 15 mg/kg): 0.0688 mg⋅h/L | t1/2 ([10]; po, 15 mg/kg): 4.54 min | Antiviral effect on virus titers over time [4]: less potent compared to BAY 81-8781; also recorded: An antiviral effect was also found with ASA (gray triangles) and SA (open triangle) 24 h and 32 h post-infection which, however, was leveled-out at the 48 h time-point | EC50 ([4]; Influenza A virus, H5N1, A549, in Anas platyrhynchos): 170 ± 50 µM | bioavailability (in vivo): ~10% | bioavailability (in vivo; 15 mg/kg): 10.3% | half-life (in vivo; 15 mg/kg, t1/2): 8.64 min | Stability in plasma [11]: not stable in plasma

salicylate
AUC and Cmax, plasma compared to lung homogenate [10]: about four-fold higher in plasma | Cmax, plasma compared to lung [10]: about three-fold higher in plasma than in lung | AUC in plasma, SA compared to ASA ([10]; iv): about 25 fold | AUCnorm ([10]; iv): 5.28 kg⋅h/L | Cmax in plasma, SA compared to ASA ([10]; iv): ~2.5 fold | AUC ([10]; po): 15.3 mg⋅h/L | Cmax ([10]; po): 12500 ng/mL | Antiviral effect on virus titers over time [4]: No antiviral effect; also recorded: An antiviral effect was also found with ASA (gray triangles) and SA (open triangle) 24 h and 32 h post-infection which, however, was leveled-out at the 48 h time-point | EC50 [4]: 700 ± 40 µM
